Source: US20250092056A1, “URACIL DERIVATIVES HAVING VIRUS REPLICATION INHIBITORY ACTIVITY AND PHARMACEUTICAL COMPOSITION COMPRISING THE SAME” (Shionogi & Co., Ltd., priority 2022, published 2025)
pEC50, pIC50: −log10 of the molar value.

Tests used:
SARS-CoV-2 = assay: Cytopathic effect (CPE) suppression effect confirmation test using HEK293T/ACE2-TMPRSS2 cells; assay type: cell-based; settings: Severe acute respiratory syndrome coronavirus 2, HEK-293T; 50% SARS-CoV-2 infected cell death inhibitory concentration; HEK293T/ACE2-TMPRSS2 cells; read-out: EC50
[1] = target: Recombinant SARS-CoV-2 3CL Protease (Severe acute respiratory syndrome coronavirus 2 (2019-nCoV) (SARS-CoV-2), UniProt P0DTD1); assay: biochemical; assay type: biochemical; settings: 50% SARS-CoV-2 3CL protease inhibitory concentration; read-out: IC50

SMILES | pEC50 (SARS-CoV-2) | pIC50 [1]
CCCCc1c(-c2ccc(F)cc2)n(CC#N)c(=O)n(-c2cncc(Cl)c2)c1=O [Compound I-286] | 6.00 to 7.00 | 7.00 to 8.00
N#CCn1c(N2CC(F)(c3ncccn3)C2)c(-c2ccc(F)c(Cl)c2)c(=O)n(-c2cncc(Cl)c2)c1=O [Compound I-287] | > 7.00 | > 8.00
CC(C)(O)C1(F)CN(c2c(-c3ccc(F)c(Cl)c3)c(=O)n(-c3cncc(Cl)c3)c(=O)n2CC#N)C1 [Compound I-289] | > 7.00 | > 8.00
N#CCn1c(N2CC(F)(F)C2)c(-c2ccc(F)c(Cl)c2)c(=O)n(-c2cncc(Cl)c2)c1=O [Compound I-290] | > 7.00 | > 8.00
Cc1cncc(-n2c(=O)c(-c3cc(F)c(F)c(F)c3)c(/C=C/C(C)(C)O)n(CC#N)c2=O)c1 [Compound I-291] | > 7.00 | 7.00 to 8.00
N#CCn1c(N2CC3(CCOCC3)C2)c(-c2ccc(F)c(Cl)c2)c(=O)n(-c2cncc(Cl)c2)c1=O [Compound I-292] | > 7.00 | > 8.00
N#CCn1c(N2CC(C(F)(F)F)C2)c(-c2ccc(F)c(Cl)c2)c(=O)n(-c2cncc(F)c2)c1=O [Compound I-295] | > 7.00 | > 8.00
CC1(O)CN(c2c(-c3ccc(F)c(Cl)c3)c(=O)n(-c3cncc(Cl)c3)c(=O)n2CC#N)C1 [Compound I-296] | > 7.00 | > 8.00
Cc1cncc(-n2c(=O)c(-c3ccc(F)c(Cl)c3)c(C3=CC4(CCOCC4)C3)n(CC#N)c2=O)c1 [Compound I-297] | > 7.00 | > 8.00
N#CCn1c(N2CC(OC(F)F)C2)c(-c2ccc(F)c(Cl)c2)c(=O)n(-c2cncc(Cl)c2)c1=O [Compound I-298] | > 7.00 | > 8.00
Cc1c(-c2ccc(F)c(Cl)c2)c(=O)n(-c2cncc(Cl)c2)c(=O)n1CC#N [Compound I-299] | > 7.00 | > 8.00
N#CCn1c(N2CC(F)(C3CC3)C2)c(-c2ccc(F)c(Cl)c2)c(=O)n(-c2cncc(F)c2)c1=O [Compound I-300] | > 7.00 | > 8.00
CC(C)=Cc1c(-c2ccc(F)c(Cl)c2)c(=O)n(-c2cncc(Cl)c2)c(=O)n1CC#N [Compound I-301] | > 7.00 | > 8.00
Cn1ccc(-c2c(-c3ccc(F)c(Cl)c3)c(=O)n(-c3cncc(Cl)c3)c(=O)n2CC#N)n1 [Compound I-302] | > 7.00 | > 8.00
Cn1ccc(-c2c(-c3ccc(F)c(Cl)c3)c(=O)n(-c3cncc(Cl)c3)c(=O)n2CC#N)cc1=O [Compound I-303] | > 7.00 | > 8.00
N#CCn1c(N2CC3(C2)CC(F)(F)C3)c(-c2ccc(F)c(Cl)c2)c(=O)n(-c2onc3cc(F)ccc23)c1=O [Compound I-304] | > 7.00 | > 8.00
N#CCn1c(N2CCC(F)(C#N)CC2)c(-c2ccc(F)c(Cl)c2)c(=O)n(-c2cncc(Cl)c2)c1=O [Compound I-305] | > 7.00 | > 8.00
CC(C)(O)CCc1c(-c2ccc(F)c(Cl)c2)c(=O)n(-c2cncc(Cl)c2)c(=O)n1CC#N [Compound I-306] | > 7.00 | > 8.00
CC(C)(F)Cc1c(-c2ccc(F)c(Cl)c2)c(=O)n(-c2cncc(Cl)c2)c(=O)n1CC#N [Compound I-307] | > 7.00 | > 8.00
CC(C)(O)Cc1c(-c2ccc(F)c(Cl)c2)c(=O)n(-c2cncc(Cl)c2)c(=O)n1CC#N [Compound I-308] | > 7.00 | > 8.00
N#CCn1c(N2CC(F)C2)c(-c2ccc(F)c(Cl)c2)c(=O)n(-c2cncc(Cl)c2)c1=O [Compound I-309] | > 7.00 | > 8.00
N#CCn1c(N2CC(C(F)(F)F)C2)c(-c2ccc(F)c(Cl)c2)c(=O)n(-c2cncc(C#N)c2)c1=O [Compound I-310] | > 7.00 | > 8.00
N#CCn1c(N2CC(OC(F)(F)F)C2)c(-c2ccc(F)c(Cl)c2)c(=O)n(-c2cncc(C#N)c2)c1=O [Compound I-311] | > 7.00 | > 8.00
N#CCn1c(N2CC(C(F)F)C2)c(-c2ccc(F)c(Cl)c2)c(=O)n(-c2cncc(C#N)c2)c1=O [Compound I-312] | > 7.00 | > 8.00
CC(C)(O)[C@@H]1CCN(c2c(-c3ccc(F)c(Cl)c3)c(=O)n(-c3cncc(C#N)c3)c(=O)n2CC#N)C1 [Compound I-313] | > 7.00 | > 8.00

SMILES | pEC50 (SARS-CoV-2) | pIC50 [1]
Cc1cc(-c2c(-c3ccc(F)c(Cl)c3)c(=O)n(-c3cncc(Cl)c3)c(=O)n2CC#N)on1 [Compound I-314] | > 7.00 | > 8.00
N#CCn1c(N2CC3(C2)CC(F)(F)C3)c(-c2ccc(F)c(F)c2)c(=O)n(-c2cncc(Cl)c2)c1=O [Compound I-315] | > 7.00 | > 8.00
N#CCn1c(N2CC(C(F)(F)F)C2)c(-c2ccc(F)c(F)c2)c(=O)n(-c2cncc(Cl)c2)c1=O [Compound I-316] | > 7.00 | > 8.00
N#CCn1c(N2CC(O)(C(F)(F)F)C2)c(-c2ccc(F)c(F)c2)c(=O)n(-c2cncc(Cl)c2)c1=O [Compound I-317] | > 7.00 | > 8.00
N#CCn1c(N2CC(OC(F)(F)F)C2)c(-c2ccc(F)c(F)c2)c(=O)n(-c2cncc(Cl)c2)c1=O [Compound I-318] | > 7.00 | > 8.00
N#CCn1c(N2CC(OC(F)F)C2)c(-c2ccc(F)c(F)c2)c(=O)n(-c2cncc(Cl)c2)c1=O [Compound I-319] | > 7.00 | > 8.00
N#CCn1c(N2C[C@@H]3C[C@H]2CO3)c(-c2ccc(F)c(F)c2)c(=O)n(-c2cncc(Cl)c2)c1=O [Compound I-320] | > 7.00 | > 8.00
N#CCn1c(N2CC(O)(c3ncccn3)C2)c(-c2ccc(F)c(F)c2)c(=O)n(-c2cncc(Cl)c2)c1=O [Compound I-321] | > 7.00 | > 8.00
N#CCn1c(N2CC(O)C2)c(-c2ccc(F)c(F)c2)c(=O)n(-c2cncc(Cl)c2)c1=O [Compound I-322] | > 7.00 | > 8.00
N#CCn1c(N2CC3(C2)CC(F)(F)C3)c(-c2ccc(F)c(Cl)c2)c(=O)n(-c2cnc3cc(F)c(F)cn23)c1=O [Compound I-323] | > 7.00 | > 8.00
N#CCn1c(CCC(F)(F)F)c(-c2ccc(F)c(Cl)c2)c(=O)n(-c2cncc(Cl)c2)c1=O [Compound I-324] | > 7.00 | > 8.00
N#CCn1c(N2CC3(C2)CC(F)(F)C3)c(-c2ccc(F)c(Cl)c2)c(=O)n(-c2cncc(OCF)c2)c1=O [Compound I-325] | > 7.00 | > 8.00
N#CCn1c(N2CCC(F)(F)CC2)c(-c2cc(F)c(F)c(F)c2)c(=O)n(-c2cncc(Cl)c2)c1=O [Compound I-326] | > 7.00 | > 8.00
N#CCn1c(N2CCC(F)(F)CC2)c(-c2cc(F)c(F)c(Cl)c2)c(=O)n(-c2cncc(Cl)c2)c1=O [Compound I-327] | > 7.00 | > 8.00
Cc1cc(-c2c(N3CCC(F)(F)CC3)n(CC#N)c(=O)n(-c3cncc(Cl)c3)c2=O)cs1 [Compound I-328] | > 7.00 | 7.00 to 8.00
N#CCn1c(N2CCC(F)(F)CC2)c(-c2csc3ccccc23)c(=O)n(-c2cncc(Cl)c2)c1=O [Compound I-329] | > 7.00 | > 8.00
N#CCn1c(N2CCC(F)(F)CC2)c(-c2cc(Cl)cc(C#N)c2)c(=O)n(-c2cncc(Cl)c2)c1=O [Compound I-330] | > 7.00 | > 8.00
N#CCn1c(N2CCC(F)(F)CC2)c(-c2cc(O)cc(Cl)c2)c(=O)n(-c2cncc(Cl)c2)c1=O [Compound I-331] | > 7.00 | > 8.00
N#CCn1c(N2CC3(C2)CC(F)(F)C3)c(-c2ccc(F)c(Cl)c2)c(=O)n(-c2cncc(OC(F)F)n2)c1=O [Compound I-332] | > 7.00 | > 8.00
N#CCn1c(N2CC(O)(C(F)F)C2)c(-c2cc(F)c(F)c(Cl)c2)c(=O)n(-c2cncc(Cl)c2)c1=O [Compound I-333] | > 7.00 | > 8.00
N#CCn1c(N2CC(OC(F)(F)F)C2)c(-c2ccc(F)c(Cl)c2)c(=O)n(-c2cncc(C(F)(F)F)n2)c1=O [Compound I-334] | > 7.00 | > 8.00
N#CCn1c(N2CC(OC(F)F)C2)c(-c2ccc(F)c(Cl)c2)c(=O)n(-c2cncc(C(F)(F)F)n2)c1=O [Compound I-335] | > 7.00 | > 8.00
N#CCn1c(N2CC(O)(c3ncccn3)C2)c(-c2ccc(F)c(Cl)c2)c(=O)n(-c2cncc(C(F)F)n2)c1=O [Compound I-336] | > 7.00 | > 8.00
Cc1cncc(-n2c(=O)c(-c3ccc(F)c(Cl)c3)c(N3CC(O)(c4ncccn4)C3)n(CC#N)c2=O)n1 [Compound I-337] | > 7.00 | > 8.00
